{
  "source": "patent US10513500B2",
  "about": "“Crystalline forms of Lesinurad” (Apotex Inc., priority 2016, dated 2019)",
  "key": {"[1]": {"conditions": "certain aqueous conditions, compared with Form 1; cited from earlier work"}, "[2]": {"experiment": "PXRD study of crystal form stability on storage", "assay_type": "physicochemical", "procedure": "Lesinurad Form APO-I can be characterized by a PXRD diffractogram comprising, among other peaks, characteristic peaks, expressed in degrees 2θ (±0.2°), at 7.8°, 15.1° and 27.0°. Preferably, the PXRD diffractogram further comprises at least three peaks, expressed in degrees 2θ (±0.2°), selected from the group consisting of: 14.5°, 15.6°, 16.4°, 17.6°, 18.5°, 19.9°, 22.1°, 23.5°, 25.9° and 29.3°. More preferably, the PXRD diffractogram further comprises peaks, expressed in degrees 2θ (±0.2°), at 14.5°, 15.6°, 16.4°, 17.6°, 18.5°, 19.9°, 22.1°, 23.5°, 25.9° and 29.3°. PXRD studies of a capped sample of Lesinurad Form APO-I have shown that this crystal form is stable following storage in a stability chamber maintained at 27° C./60% RH for 17 days.\nLesinurad Form APO-II can be characterized by a PXRD diffractogram comprising, among other peaks, characteristic peaks, expressed in degrees 2θ (±0.2°), at 7.9°, 15.2°, 16.5° and 25.4°. Preferably, the PXRD diffractogram further comprises at least two peaks, expressed in degrees 2θ (±0.2°), selected from the group consisting of: 14.4°, 15.7°, 17.7°, 18.4°, 22.1°, 22.8°, 23.5°, 26.5°, 28.8° and 29.3°. More preferably, the PXRD diffractogram further comprises peaks, expressed in degrees 2θ (±0.2°), at 14.4°, 15.7°, 17.7°, 18.4°, 22.1°, 22.8°, 23.5°, 26.5°, 28.8° and 29.3°. PXRD studies of a capped sample of Lesinurad Form APO-II have shown that this crystal form is stable following storage at room temperature and ambient humidity for 28 days.\nLesinurad Form APO-III can be characterized by a PXRD diffractogram comprising, among other peaks, characteristic peaks, expressed in degrees 2θ (±0.2°), at 6.2° and 19.9°. Preferably, the PXRD diffractogram further comprises at least four peaks, expressed in degrees 2θ (±0.2°), selected from the group consisting of: 7.6, 10.3°, 14.1°, 15.3°, 17.8°, 21.1°, 23.4°, 25.7° and 27.2°. More preferably, the PXRD diffractogram further comprises peaks, expressed in degrees 2θ (±0.2°), at 7.6°, 10.3°, 14.1°, 15.3°, 17.8°, 21.1°, 23.4°, 25.7° and 27.2°. PXRD studies of capped and uncapped samples of Lesinurad Form APO-III have shown that this crystal form is stable following storage in stability chambers maintained at 27° C./60% RH and 40° C./75% RH for 18 days.\nData were acquired on a PANanalytical X-Pert Pro MPD diffractometer with fixed divergence slits and an X'Celerator RTMS detector. The diffractometer was configured in Bragg-Brentano geometry; data was collected over a 2-theta range of 3° to 40° using CuKα radiation at a power of 40 mA and 45 kV. […] was removed using a divergent beam nickel filter. A step size of 0.017° was used. Samples were rotated to reduce preferred orientation effects. Samples were lightly ground prior to analysis. […]"}, "[3]": {"experiment": "Stability study under stress conditions (impurities, area %)", "assay_type": "physicochemical", "conditions": "for Major Unidentified Impurity: RRT in brackets", "procedure": "(§1) The stability of Lesinurad Form APO-III was assessed under various stress conditions as outlined in Table 5."}, "[4]": {"experiment": "Hygroscopicity on storage in humid, high temperature environment", "assay_type": "physicochemical", "conditions": "stress conditions of Table 5 (open sample, 40° C./75% RH, 21 days)", "procedure": "as §1\nThe title solid form of Lesinurad was prepared according to the procedure in Example 14 of WO 2015/095703 A1. A suspension of Lesinurad (1 g) in ethyl acetate (63 mL) was sonicated at room temperature for 30 minutes in order to achieve dissolution. Proline (570 mg) was added to the solution, and the resulting suspension was stirred at room temperature for 26 hours, at which time the suspension was isolated by filtration to afford a solid (872.9 mg, 68% yield) having a PXRD diffractogram consistent with FIG. 22 in WO 2015/095703 A1. […]"}, "[5]": {"conditions": "primary amine group; cited from earlier work"}, "[6]": {"conditions": "dry heat, heat/humidity and light exposure"}, "[7]": {"conditions": "light exposure 200 W·hr/m^2 UV + 1.2M LUX hr fluorescent"}, "[8]": {"conditions": "open sample, dry heat, solid state, 60° C./ambient RH, 21 days"}, "[9]": {"conditions": "open sample, heat/humidity, solid state, 40° C./75% RH, 21 days"}, "[10]": {"conditions": "sample wrapped in foil (control), light exposure 200 W·hr/m^2 UV + 1.2M LUX hr fluorescent"}},
  "note": "Entries after “also recorded” stand apart in the source; their conditions may differ.",
  "data": [
    {"smiles": "O=C(O)CSc1nnc(Br)n1-c1ccc(C2CC2)c2ccccc12", "note": "[Form 2, Lesinurad]", "values": [
      {"measurement": "solubility", "setting": "[1]", "result": "lower solubility than Form 1"}
    ]},
    {"smiles": "O=C(O)CSc1nnc(Br)n1-c1ccc(C2CC2)c2ccccc12", "note": "[Lesinurad Form APO-I, Lesinurad]", "values": [
      {"measurement": "crystal form stability by PXRD", "setting": "[2]; capped sample, stability chamber 27° C./60% RH, 17 days", "result": "stable; also recorded: no change"}
    ]},
    {"smiles": "O=C(O)CSc1nnc(Br)n1-c1ccc(C2CC2)c2ccccc12", "note": "[Lesinurad Form APO-II, Lesinurad]", "values": [
      {"measurement": "crystal form stability by PXRD", "setting": "[2]; capped sample, room temperature and ambient humidity, 28 days", "result": "no change; also recorded: stable"}
    ]},
    {"smiles": "O=C(O)CSc1nnc(Br)n1-c1ccc(C2CC2)c2ccccc12", "note": "[Lesinurad Form APO-III, Lesinurad]", "values": [
      {"measurement": "crystal form stability by PXRD", "setting": "[2]; capped and uncapped samples, 27° C./60% RH, 18 days", "result": "no change; also recorded: stable"},
      {"measurement": "crystal form stability by PXRD", "setting": "[2]; capped and uncapped samples, 40° C./75% RH, 18 days", "result": "no change; also recorded: stable"},
      {"measurement": "Total Identified Impurity", "setting": "[3]; Non-stressed sample", "result": 0.09, "unit": "area %"},
      {"measurement": "Total Impurities", "setting": "[3]; Non-stressed sample", "result": 0.33, "unit": "area %"},
      {"measurement": "Total Unidentified Impurity", "setting": "[3]; Non-stressed sample", "result": 0.24, "unit": "area %"},
      {"measurement": "Major Unidentified Impurity", "setting": "[3]; Non-stressed sample", "result": "0.08 (0.91) area %"},
      {"measurement": "loss of Lesinurad", "setting": "[3]; [6]", "result": "no significant loss"},
      {"measurement": "stability to stress conditions", "setting": "[3]; [6]", "result": "good stability"},
      {"measurement": "total degradation", "setting": "[3]; dry heat, heat/humidity and light exposure (Table 5)", "result": "less than 0.10%"},
      {"measurement": "chemical and physical stability", "setting": "[3]; humid and high temperature environment", "result": "chemically and physically stable"},
      {"measurement": "Total Identified Impurity", "setting": "[3]; [7]", "result": 0.10, "unit": "area %"},
      {"measurement": "Total Impurities", "setting": "[3]; [7]", "result": 0.46, "unit": "area %"},
      {"measurement": "Total Unidentified Impurity", "setting": "[3]; [7]", "result": 0.35, "unit": "area %"},
      {"measurement": "Major Unidentified Impurity", "setting": "[3]; [7]", "result": "0.09 (0.92) area %"},
      {"measurement": "Total Identified Impurity", "setting": "[3]; [8]", "result": 0.10, "unit": "area %"},
      {"measurement": "Total Impurities", "setting": "[3]; [8]", "result": 0.40, "unit": "area %"},
      {"measurement": "Total Unidentified Impurity", "setting": "[3]; [8]", "result": 0.30, "unit": "area %"},
      {"measurement": "Major Unidentified Impurity", "setting": "[3]; [8]", "result": "0.09 (0.91) area %"},
      {"measurement": "Total Identified Impurity", "setting": "[3]; [9]", "result": 0.09, "unit": "area %"},
      {"measurement": "Total Impurities", "setting": "[3]; [9]", "result": 0.38, "unit": "area %"},
      {"measurement": "Total Unidentified Impurity", "setting": "[3]; [9]", "result": 0.29, "unit": "area %"},
      {"measurement": "Major Unidentified Impurity", "setting": "[3]; [9]", "result": "0.09 (0.91) area %"},
      {"measurement": "Total Identified Impurity", "setting": "[3]; [10]", "result": 0.10, "unit": "area %"},
      {"measurement": "Total Impurities", "setting": "[3]; [10]", "result": 0.42, "unit": "area %"},
      {"measurement": "Total Unidentified Impurity", "setting": "[3]; [10]", "result": 0.32, "unit": "area %"},
      {"measurement": "Major Unidentified Impurity", "setting": "[3]; [10]", "result": "0.09 (0.92) area %"},
      {"measurement": "hygroscopicity", "setting": "[4]", "result": "did not exhibit signs of hygroscopicity"}
    ]},
    {"smiles": "O=C(O)[C@@H]1CCCN1", "note": "[Proline]", "values": [
      {"measurement": "pKa", "setting": "[5]", "result": "approximately 10.6"}
    ]}
  ]
}
